Assay results taken from patent publication US20240182436A1, “SUBSTITUTED SULFONAMIDE-CHROMAN COMPOUNDS, AND PHARMACEUTICAL COMPOSITIONS, AND METHODS OF USE THEREOF” (priority 2021, published 2024).

Tested on: Harmaline-induced tremor
Test: Harmaline-induced Tremor Model
Assay type: in vivo
Conditions: adult male CD1 mice, test article 30 mg/kg i.p., harmaline 30 mg/kg i.p.; for inhibition in vivo at 30 mg/kg: Mus musculus, ip, read-out: Tremor Suppression Activity (magnitude of tremor suppression in percent compared to vehicle); for Tremor power relative to baseline (mean ± s.e.m.): 10-20 Hz power over 20 min relative to 20-min baseline
Description: Harmaline-induced Tremor: Harmaline-induced tremor is widely recognized as an animal model of Essential Tremor (ET). Following acute administration, harmaline produces an 8-16 Hz tremor in rodents, cats, and monkeys that, like ET, is postural and kinetic, involving appendicular and axial musculature (Handforth, A. (2012). Harmaline tremor: underlying mechanisms in a potential animal model of essential tremor. Tremor and Other Hyperkinetic Movements (NY), 2, 02-92-769-1; Handforth, A. (2016). Linking Essential Tremor to the Cerebellum-Animal Model Evidence. Cerebellum, 15(3), 285-298; LeDoux, M. (2005). Harmaline tremor. In Movement Disorders. Elsevier Inc.; Louis, E. D. (2014). Re-thinking the biology of essential tremor: From models to morphology. Parkinsonism and Related Disorders, 20 (SUPPL.1), S88-S93). […] Clinical agents that suppress ET in patients are generally effective in the harmaline-induced tremor model (Handforth 2016). Following acute dosing of harmaline in mice, the tremor frequency (10-20 Hz) is typically recorded using an automated force plate-based system.
Procedure: Tremor activity was measured using a custom-made testing apparatus containing a piezoelectric sensing platform which was connected to an amplifier (A-M Systems model 1700). Adult male CD1 mice were brought to the experiment room for acclimatization 1 h prior to testing. Mice were first placed inside the testing apparatus for 10 min baseline habituation. After the initial habituation, mice were treated with vehicle (10 ml/kg) or test article (30 mg/kg, i.p.) and placed back in the apparatus for an additional 20 min baseline recording. Subsequently, animals were injected with harmaline (30 mg/kg, i.p.) and tremor activity was measured for 20 min. The electric signal of tremor activity was amplified at a sampling rate of 512 Hz with a multichannel amplifier and then acquired, quantized, and digitized by a data acquisition unit (CED Micro 1401). The software Spike2 (v 7.07, Cambridge Electronic Design, Cambridge, UK) was used to analyze the tremor signal by performing Fourier transformation of the data into frequency spectra. Changes in absolute power were expressed relative to each animal's 20-min baseline for the frequencies of 10-20 Hz. Comparisons between treatment and respective vehicle groups were assessed with two-tailed, Student's t-test. The level of statistical significance was defined as p<0.05 (see, e.g., Table 2.1) The magnitude of tremor suppression in percent compared to vehicle is shown in Table 2.2.
A tremor suppression score was defined as the magnitude of tremor suppression in percent compared to vehicle: ≤24% (D), 25-55% (C), 56-70% (B) and 71-100% (A). Not tested (---).

| SMILES | inhibition in vivo at 30 mg/kg [%] | Tremor Suppression Activity (magnitude of tremor suppression in percent compared to vehicle) | Tremor power relative to baseline (mean ± s.e.m.) |
| --- | --- | --- | --- |
| NS(=O)(=O)CC1CCOc2cc(F)cc(F)c21 (single isomer, unassigned) [Compound 17, (S*)-(5,7-difluorochroman-4-yl)methanesulfonamide] | 56 to 70 | – | – |
| CC1(C)CC(CS(N)(=O)=O)c2ccc(F)cc2O1 (single isomer, unassigned) [Compound 46, (S*)-(7-fluoro-2,2-dimethylchroman-4-yl)methanesulfonamide] | – | A (71-100% (A)) | 145 ± 27 |
| NS(=O)(=O)CC1CC2(CCC2)Oc2cc(F)ccc21 (single isomer, unassigned) [Compound 3, (S*)-(7-fluorospiro[chromane-2,1′-cyclobutan]-4-yl)methane-sulfonamide] | – | C (25-55% (C)) | – |
| C[C@@H]1COc2ccccc2[C@H]1CS(N)(=O)=O (stereo in doubt) [Compound 41, ((3S*,4S*)-3-methylchroman-4-yl)methanesulfonamide] | 56 to 70 | – | – |
| C[C@@H]1COc2cc(F)c(F)cc2[C@@H]1CS(N)(=O)=O (stereo in doubt) [Compound 8, ((3S*,4R*)-6,7-difluoro-3-methylchroman-4-yl)methanesulfonamide] | 25 to 55 | – | – |
| CC[C@@H]([C@H]1CCOc2cc(F)ccc21)S(N)(=O)=O (stereo in doubt) [Compound 25, (S*)-1-((S*)-7-fluorochroman-4-yl)propane-1-sulfonamide] | 56 to 70 | – | – |
| CC1(C)CC(CS(N)(=O)=O)c2cc(F)c(F)cc2O1 (single isomer, unassigned) [Compound 5, (S*)-(6,7-difluoro-2,2-dimethylchroman-4-yl)methanesulfonamide] | – | C (25-55% (C)) | – |
| NS(=O)(=O)CC1CCOc2c1ccc(F)c2F (single isomer, unassigned) [Compound 15, (S*)-(7,8-difluorochroman-4-yl)methanesulfonamide] | – | C (25-55% (C)) | – |
| NS(=O)(=O)CC1CCOc2cc(C(F)(F)F)ccc21 (single isomer, unassigned) [Compound 38, (R*)-(7-(trifluoromethyl)chroman-4-yl)methanesulfonamide] | – | A (71-100% (A)) | – |
| NS(=O)(=O)CC1CC2(CC2)Oc2cc(F)ccc21 (single isomer, unassigned) [Compound 2, (R*)-(7-fluorospiro[chromane-2,1′-cyclopropan]-4-yl)methanesulfonamide] | – | A (71-100% (A)) | – |
| NS(=O)(=O)CC1CCOc2cc(Cl)ccc21 (single isomer, unassigned) [Compound 32, (R*)-(7-chlorochroman-4-yl)methanesulfonamide] | – | B (56-70% (B)) | – |
| C[C@H]1COc2ccccc2[C@H]1CS(N)(=O)=O (stereo in doubt) [Compound 39, ((3R*,4S*)-3-methylchroman-4-yl)methanesulfonamide] | 25 to 55 | – | – |
| NS(=O)(=O)CC1CCOc2cc(F)c(F)cc21 (single isomer, unassigned) [Compound 29, (S*)-(6,7-difluorochroman-4-yl)methanesulfonamide] | 56 to 70 | – | – |
| C[C@@H]1COc2cc(F)ccc2[C@@H]1NS(N)(=O)=O (stereo in doubt) [Compound 73, (3(S*),4(R*))-7-fluoro-3-methyl-4-(sulfamoylamino)-3,4-dihydro-2(H)-chromene] | 56 to 70 | – | – |
| CC[C@H]1COc2cc(F)ccc2[C@H]1CS(N)(=O)=O (stereo in doubt) [Compound 19, ((3R*,4S*)-3-ethyl-7-fluorochroman-4-yl)methanesulfonamide] | ≤ 24 | – | – |
| CC[C@@H]1C[C@H](CS(N)(=O)=O)c2ccc(F)cc2O1 (stereo in doubt) [Compound 11, ((2R*,4S*)-2-ethyl-7-fluorochroman-4-yl)methanesulfonamide] | 71 to 100 | – | 134 ± 32 |

| SMILES | inhibition in vivo at 30 mg/kg [%] | Tremor Suppression Activity (magnitude of tremor suppression in percent compared to vehicle) | Tremor power relative to baseline (mean ± s.e.m.) |
| --- | --- | --- | --- |
| NS(=O)(=O)CC1CCOc2cc(C(F)(F)F)ccc21 (single isomer, unassigned) [Compound 37, (S*)-(7-(trifluoromethyl)chroman-4-yl)methanesulfonamide] | 56 to 70 | – | – |
| C[C@@H]1COc2ccccc2[C@@H]1CS(N)(=O)=O (stereo in doubt) [Compound 40, ((3S*,4R*)-3-methylchroman-4-yl)methanesulfonamide] | 25 to 55 | – | – |
| NS(=O)(=O)CC1CC2(CC2)Oc2cc(F)ccc21 (single isomer, unassigned) [Compound 1, (S*)-(7-fluorospiro[chromane-2,1′-cyclopropan]-4-yl)methanesulfonamide] | 56 to 70 | – | – |
| C[C@@H]1COc2cc(F)c(F)cc2[C@H]1CS(N)(=O)=O (stereo in doubt) [Compound 9, ((3S*,4S*)-6,7-difluoro-3-methylchroman-4-yl)methanesulfonamide] | 25 to 55 | – | – |
| C[C@H]1COc2cc(F)ccc2[C@H]1NS(N)(=O)=O (stereo in doubt) [Compound 74, (3(R*),4(S*))-7-fluoro-3-methyl-4-(sulfamoylamino)-3,4-dihydro-2(H)-chromene] | 56 to 70 | – | – |
| C[C@H]1COc2ccccc2[C@@H]1CS(N)(=O)=O (stereo in doubt) [Compound 42, ((3R*,4R*)-3-methylchroman-4-yl)methanesulfonamide] | ≤ 24 | – | – |
| C[C@H]1COc2ccc(F)cc2[C@H]1CS(N)(=O)=O (relative stereo) [Compound 53, ((3R*,4S*)-6-fluoro-3-methylchroman-4-yl)methanesulfonamide] | 25 to 55 | – | – |
| C[C@H]1COc2cc(F)c(F)cc2[C@@H]1CS(N)(=O)=O (stereo in doubt) [Compound 10, ((3R*,4R*)-6,7-difluoro-3-methylchroman-4-yl)methanesulfonamide] | ≤ 24 | – | – |
| C[C@@H]1C[C@H](CS(N)(=O)=O)c2ccccc2O1 (stereo in doubt) [Compound 33, ((2R*,4S*)-2-methylchroman-4-yl)methanesulfonamide] | 25 to 55 | – | – |
| CC[C@H]1C[C@@H](CS(N)(=O)=O)c2ccc(F)cc2O1 (stereo in doubt) [Compound 12, ((2S*,4R*)-2-ethyl-7-fluorochroman-4-yl)methanesulfonamide] | 56 to 70 | – | 196 ± 59 |
| NS(=O)(=O)CC1CC2(CCC2)Oc2cc(F)ccc21 (single isomer, unassigned) [Compound 4, (R*)-(7-fluorospiro[chromane-2,1′-cyclobutan]-4-yl)methane-sulfonamide] | – | B (56-70% (B)) | – |
| NS(=O)(=O)CC1CCOc2c1ccc(F)c2F (single isomer, unassigned) [Compound 16, (R*)-(7,8-difluorochroman-4-yl)methanesulfonamide] | – | B (56-70% (B)) | – |
| C[C@H]1COc2cc(F)c(F)cc2[C@H]1CS(N)(=O)=O (stereo in doubt) [Compound 7, ((3R*,4S*)-6,7-difluoro-3-methylchroman-4-yl)methanesulfonamide] | 25 to 55 | – | – |
| CC1(C)CC(CS(N)(=O)=O)c2ccc(F)cc2O1 (single isomer, unassigned) [Compound 45, (R*)-(7-fluoro-2,2-dimethylchroman-4-yl)methanesulfonamide] | 71 to 100 | – | 144 ± 35 |
| CC1(C)COc2cc(F)ccc2C1CS(N)(=O)=O (single isomer, unassigned) [Compound 44, (R*)-(7-fluoro-3,3-dimethylchroman-4-yl)methanesulfonamide] | – | C (25-55% (C)) | 518 ± 109 |
| NS(=O)(=O)C1(C2CCOc3cc(F)ccc32)CC1 (single isomer, unassigned) [Compound 28, (R*)-1-(7-fluorochroman-4-yl)cyclopropane-1-sulfonamide] | – | C (25-55% (C)) | – |
